These results are taken from a melting point compilation (Tetko et al.; mined from patent text by program, amines drawn as free bases though some values may be those of a salt).

The structures appear in SMILES notation.

Turning to `COC(=O)[C@H]1C[C@H](C(=O)O)Nc2cc(Br)cc(Br)c21` (relative stereo), the melting point (in general, the temperature of the solid-liquid transition) was in the range of 171 to 173 °C. In the case of `CCCc1c(O)c(C(C)=O)cc(Cl)c1OCCCOc1c(C(C)=O)ccc(OCC(=O)O)c1CCC` it was 119 to 121 °C; in that of `O=S(=O)(O)c1ccc(Nc2cnnc3cc(Cl)ccc23)cc1`, above 280 °C; in that of `CCCOc1ccccc1-c1[nH]c(=O)c(C#N)cc1C`, 213 °C. With `Cn1c(=O)[nH]c(=O)c2c1ncn2CC1OCCO1` the figure was 276 to 278 °C. In the case of `Cc1ccc(-n2c(-c3ccc(C=Cc4ccccc4)cc3)ccc2-c2ccc(C=Cc3ccccc3)cc2)cc1` it was 297 to 298 °C; in that of `O=C(NCC(F)(F)F)C1(CCCCc2ccc(NS(=O)(=O)c3ccc([N+](=O)[O-])cc3)cc2)c2ccccc2-c2ccccc21`, 136 to 138 °C. Regarding `CC(=O)OCC(N)C(=O)Nn1cccc1` (configuration not stated), the melting point lay in the range of 147 to 148 °C.

Consider `Cc1nnc(-n2cc(C(=O)N3CCCC3)c3c4cc(F)ccc4n(C)c3c2=O)s1`, for which the melting point was in the range of 299 to 301 °C. `CCOC(=O)NCCOc1cc(Oc2ccc(C(F)(F)F)cc2Cl)ccc1[N+](=O)[O-]` came in with a melting point of 70 to 71 °C. `CC(C)=CCC/C(C)=C/CSc1nc2cc(Cl)ccc2[nH]1`: the melting point fell in the range of 102 to 104 °C. In turn, `O=C(NCCCn1ccnc1)C(c1ccccc1)c1ccccc1` returned a melting point of 136 to 138 °C. With `CCCC(=O)Nc1n[nH]c2cc(-c3ccc(OC)cc3)ccc12` the figure was 210 °C; with `CCc1cc(-c2nc(C)c(-c3ccnc(Nc4ccc(CNC(C)=O)cc4)n3)s2)ccn1`, 224 to 225 °C. In the case of `COc1cc(NP(=O)(OC)OC)ccc1NC(=O)OCc1ccccc1` it was 115 °C.

Compound `Cc1c2n(c(=O)c3cc(OC(=O)CN)cc(OC(=O)CN)c13)CCCC2` registered a melting point of 163 to 164 °C. In the case of `OC(Cn1ccnc1)(c1ccc(Cl)cc1)C1(Oc2ccc(Cl)cc2)CC1` (configuration not stated), the melting point was in the range of 172 to 173 °C. `O=C1c2c(O)cccc2C(O)(c2cccs2)c2cccc(O)c21` came in with a melting point of 191 to 192 °C. In turn, `CN(c1ccc(O)cc1)c1cc2ccc(F)cc2c(O)n1` showed a melting point of 249 °C.

In turn, `COc1cc(CC(=O)O)ccc1OCc1nc(-c2ccccc2)oc1C` gave a melting point of 176 to 177 °C. In the case of `COC(=O)c1c(F)cc(OCCNC(=O)C2Cc3ccccc3N2S(=O)(=O)c2ccc(-c3ccc(F)cc3OC)cc2)cc1F` (configuration not stated) it was 65 to 76 °C; in that of `CC(=Nc1ccc2c(c1)C(=O)c1ccc(N=C(C)N3CCCCC3)cc1C2=O)N1CCCCC1`, 233 to 235 °C.

Compound `CN(Cc1cn(C23CC4CC(CC(C4)C2)C3)nn1)Cc1cccs1` yielded a melting point of 66 to 68 °C. In the case of `COc1cc(C(=O)c2cnc3ccccc3c2)ccc1OCc1ccccc1` it was 110 to 111 °C; in that of `CC(=O)NC(C)C(=O)NCC(=O)O` (racemic), 79 to 82 °C. On to `Cc1c(C(F)(F)F)cnc(O)c1Cl`, for which the melting point lay within 204 to 205 °C. In turn, `CS(=O)(=O)c1cn(CC2=NCCN2)c2ccc(N)cc12` registered a melting point of 215 to 217 °C.

In turn, `CC(=O)OC1CC(C)(C)N(OC(=O)C=Cc2ccccc2)C(C)(C)C1` displayed a melting point of 130 to 132 °C. In the case of `Cc1c(C(=O)NC2C3(C)CCC(C3)C2(C)C)c2ccc(Cl)c(Cl)c2n1CCCNS(C)(=O)=O` (configuration not stated) it was 150 to 154 °C.

Regarding `COc1cc2nc(-c3ccccc3)nc(N3CCN(C(=O)Nc4ccc([N+](=O)[O-])cc4)CC3)c2cc1OC`, the melting point was 156 to 157 °C. Take `CN1C(=O)C(c2ccncc2)(c2cccc(-c3cc(F)ccc3F)c2)N=C1N` (configuration not stated): the melting point is 200 to 202 °C.

As to `COc1cc2c(cc1C)C(=O)CCC2`, the melting point was in the range of 104 to 107 °C. With `CN1CCN(Cc2ccc(-c3cc4ncnc(Nc5ccc6[nH]ccc6c5)c4s3)cc2)CC1` the figure was 143 to 150 °C; with `CCc1ccc(-c2onc3ccccc23)cc1`, 42 to 42.5 °C. With `COc1cccc2c1Oc1sc(C)cc1C(=O)N2` the figure was 160 to 164 °C. With `COCCOC(=O)CS(=O)C(C)c1ccc(-c2ccccc2F)cc1` (configuration not stated) the figure was 65 to 67 °C.

`CCCCCCCCCCCCSc1nnn(C(C(=O)O)c2ccccc2)n1` (configuration not stated): the melting point lay in the range of 64 to 67 °C. In the case of `Nc1nc(N2CCOCC2)c2ncn(C3C=CC(CO)C3)c2n1` (configuration not stated) it was 165 to 167 °C; in that of `CCCc1c(OCc2ccc(/C=C3\SC(=S)NC3=O)cc2)ccc(C(=O)c2ccccc2)c1O`, 229 to 230 °C. `O=c1[nH]c2ccc(Cn3ccnc3)cc2[nH]c1=O` registered a melting point above 300 °C.

In turn, `CC(C)n1c(C(=O)Cl)c(-c2ccc(F)cc2)c2ccccc2c1=O` registered a melting point of 132 to 134 °C. In the case of `Cc1nc2c(OCc3c(N)cccc3Cl)cccn2c1Br` it was 177 to 178 °C. With `COc1ccc(C=Cc2nc(CCl)co2)cc1` the figure was 148 to 151 °C; with `CCOC(=O)C(C)(C(C)=O)c1ccc(N)c(NC)c1C#N` (configuration not stated), 118 to 123 °C. As to `Cc1oc2c(-n3c(=O)cc(C(F)(F)F)n(C)c3=O)c(F)cc(Cl)c2c1C=O`, the melting point fell in the range of 148 to 150 °C.

In the case of `CC(C)(C)OC(=O)N1CCCN(c2ccncc2)CC1`, the melting point is 124 to 129 °C. For `COCOc1ccc2c(N)noc2c1`, the melting point was 88 to 89 °C.

Regarding `Cc1cc(C#N)nc(-c2ccc([N+](=O)[O-])cc2)c1`, the melting point is 146 to 156 °C. For `COc1ccc2c(c1)C(=O)C(Oc1cccnc1)CO2` (configuration not stated), the melting point was 116 to 117 °C. In the case of `COc1cccc(Cn2c(C)c(CC(=O)O)c3cc(OCc4csc(-c5ccccc5)n4)ccc32)c1` it was 162 to 163 °C; in that of `CN1CCN(c2ccc(N/C=C3\CN=Cc4ccccc43)cc2)CC1`, 245 to 246 °C; in that of `COc1cc2nc(N3CCN(c4ccc(Cl)nn4)CC3)nc(N)c2cc1OC`, 269 to 270 °C. In turn, `O=c1c2ccc(Cl)cc2sn1CCCCl` had a melting point of 89 °C. In turn, `COc1ccc(Cl)cc1-c1c(NCn2nnc3ccccc32)c(=O)[nH]c2ccc(C(F)(F)F)cc12` registered a melting point of 217 to 219 °C. In the case of `Cc1cccc(NC(=O)NC2C(=O)Nc3ccccc3NC2=O)c1` it was above 300 °C; in that of `O=S(=O)(O)c1ccc(Nc2ncnc3ccc(Cl)cc23)cc1`, above 300 °C. With `COc1cc(N)c2nc(Cl)cc(C)c2c1Oc1cccc(C(F)(F)F)c1` the figure was 133 to 135 °C; with `Brc1cn2ccnc2c(N2CCOCC2)n1`, 191 °C; with `CNC(=O)CN1CCc2cc(Nc3ncc(Cl)c(Nc4cc(C(N)=O)ccc4OC)n3)c(OC)cc2CC1`, 225 to 236 °C. With `Cc1cc(CN=C(O)c2cc(C(O)=NCc3cc(C)c(O)c(C(C)(C)C)c3)c(C(=O)O)cc2C(=O)O)cc(C(C)(C)C)c1O` the figure was 267 to 269 °C; with `c1cncc(CC[C@H]2CNCCN2)c1`, 104 to 110 °C; with `O=C1C=C(O[C@@H]2c3cc([N+](=O)[O-])ccc3OC(CF)(CF)[C@H]2O)CC1` (relative stereo), 206 to 208 °C.

In turn, `N#Cc1c(Cl)[nH]c2cccnc12` returned a melting point above 250 °C. Regarding `CC1(C(O)=C(Cc2ccc(Cl)cc2Cl)n2cncn2)COCOC1`, the melting point fell in the range of 190 to 192 °C.

With `COC(=O)C(=C1SCCCN1C(=O)C(Cl)Cl)[N+](=O)[O-]`, the melting point was 122 °C. In the case of `COC(=O)C1=C(C)Nc2c(c(=O)n(C)c(=O)n2C)C1c1cccc([N+](=O)[O-])c1` (configuration not stated) it was above 230 °C. Regarding `CCC(C)(C)c1cc(-c2ccc(F)c(C=C3SC(N4CCOCC4)=NC3=O)c2)ccc1O`, the melting point is 246 to 247 °C. In turn, `CCCCCCCCOC(=O)C=CC(=O)OC(=C1C(=O)N(C(N)=O)c2cc(Cl)c(F)cc21)c1cccs1` showed a melting point of 140 to 148 °C.

For `Oc1c(Cl)cc2c(-c3ccccc3F)noc2c1Cl`, the melting point lay within 194 to 196 °C. Regarding `CCOC(=O)c1c(C)c(C#N)c(N)c(C#N)c1C`, the melting point stood at 206 °C. With `CSc1c(NC(C)=O)cnc2ccccc12` the figure was 137 to 138 °C; with `CCC1(CCn2ccnc2)SCCS1`, 118 to 121 °C; with `CCC1CCCCN1C(=O)Nc1ccccc1CCc1cc(C(C)(C)C)c(O)c(C(C)(C)C)c1` (configuration not stated), 137 to 138 °C.

The compound `Cc1cc(C)nc(CCOc2ccc(NC(=O)N(C)C)cc2)c1` had a melting point of 113 to 114 °C. In turn, `CC(=O)OC1CSC(Oc2ccc(-c3ccc(F)nc3)nc2Cl)C(OC(C)=O)C1OC(C)=O` (configuration not stated) came in with a melting point of 226 °C.

In turn, `COc1ccc(-c2ncn(Cc3ccccc3)c2-c2ccc(OC)cc2)cc1` had a melting point of 165 to 167 °C. In the case of `CCn1cc(-c2cccc(C(F)(F)F)c2)c(=O)c(-c2cccc(C(F)(F)F)c2)c1` it was 185 °C. For `Cc1ccc(-c2[nH]c(-c3ccccc3)nc2C(=O)Nc2nc(-c3ccccc3)cs2)cc1`, the melting point was in the range of 274 to 276 °C. In turn, `COC(=O)NCC(=CF)c1ccccc1` yielded a melting point of 73 to 74 °C.

As for `COc1cc(OC)nc(N(C)C(=O)NS(=O)(=O)c2ccccc2OC(F)(F)F)n1`, the melting point is 162 °C. Compound `CCCc1nn(-c2ccc(C(F)(F)F)cn2)cc1CCCCOc1nn(C)cc1CC(=O)O` came in with a melting point of 95 to 97 °C. `CCOC(=O)c1cccc(-c2cc(C(=O)OCC)c(N)[nH]2)c1`: the melting point was 136 to 137 °C. In the case of `CC(=O)Nc1ccc(N2CCN(Cc3ccccc3)CC2)cc1` it was 159 to 161 °C; in that of `Cc1[nH]cnc1CSCCN=C(N)NCCNC(N)=NCCSCc1nc[nH]c1C`, 201 to 203 °C; in that of `CCNC1CN(c2ccc(CCO[Si](c3ccccc3)(c3ccccc3)C(C)(C)C)cc2)S(=O)(=O)c2sc(S(N)(=O)=O)cc21` (configuration not stated), 66 °C. With `COc1cc(NC(C)=O)ccc1C=NNC(=N)NN=Cc1ccc(NC(C)=O)cc1OC` the figure was 287 to 288 °C; with `C=CCc1cc(N2CCN(c3ccncc3)CC2)ccc1O`, 180 to 182 °C.
